Experimental data as given in patent publication US20060013804A1, “Modulation of stem cell differentiation by modulation of caspase-3 activity” (Ottawa Health Research Institute, priority 2002, published 2006).
Entries after “also recorded” stand apart in the source; their conditions may differ.

How the values were obtained:
Type in all cases: cell-based, mouse
[1] = system: PARP cleavage; experiment: PARP cleavage by Western blot in differentiating C2C12 myoblasts; conditions: C2C12, treated vs untreated
Method: Protein isolation, immunoblot analyses and immunocytochemistry. Cells from C2C12 and primary myoblast cultures were washed with ice-cold PBS and lysed on ice for 45 minutes in modified-RIPA buffer containing 20 mM NaF, 5 mM Na3VO4 and 10 μg/ml each of aprotinin, leupeptin, pepstatin and PMSF. Total protein was measured using the BCA protein assay (Pierce). Immunoblot analyses were performed as described (Creasy, C. L., & Chernoff, J. (1995) J. Biol. Chem. 270, 21695-21700) using antibodies for MST1, MKK6, p38γ, and p38α (Upstate), p38 and MEF2C (Cell Signaling Technologies), myogenin F5D and myosin heavy chain MF20 mAb (Developmental Hybridoma Bank), and active caspase-3 (Biovision).
Cells were fixed after 0, 2 and 4 days of differentiation and stained with the myosin heavy chain antibody MF20. […] In contrast, differentiation was more evident in cells that were incubated with caspase-8 inhibitor, z-LETD.fmk (FIG. 2B bottom panel, C).

[2] = system: clonally-derived CD1 neurospheres; experiment: CD1 neurosphere differentiation with caspase inhibitor: immunocytochemistry and immunoblot of neural markers; conditions: for nestin expression under differentiation conditions: early periods (48 h)
Method: Neurosphere culture: clonally-derived neurospheres were generated from the striatum of E14.5 CD1 murine embryos according to methods previously described (Reynolds, B. A., and Weiss, S. (1996) Dev Biol 175, 1-13). The neurospheres were maintained in NeuroCult Proliferation Medium (StemCell Technologies, Canada) supplemented with 20 ng/ml basic fibroblast growth factor (bFGF) as per manufacturer's instructions.
Neurospheres were sub-cultured no more than once per collection. The differentiation of neurospheres was initated by plating spheres on poly-L-ornithine coated plates in NeuroCult Differentiation Medium in the absence of bFGF, as per manufacturer's instructions. […] All cultures received fresh media and inhibitor every 24 h for the duration of the experiment. Neurospheres from caspase 3 null embryos (Fernando, P., et al., (2002) Proc Natl Acad Sci USA 99, 11025-11030) were cultured as described above.
Immunocytochemistry: Neurospheres were collected at selected time points, fixed in 4% paraformaldehyde and prepared for immunostaining as previously described (Fernando, P., et al., (2002) Proc Natl Acad Sci USA 99, 11025-11030)). The primary antibody concentrations for anti-nestin, -GFAP, -MBP and -active caspase 3 (BioVision, USA) were titrated on wildtype CD1 neurospheres prior to their experimental use. These antibodies were visualized by counterstaining with either FITC or Cy3 conjugated secondary antibodies (Chemicon USA). Nuclei were localized with 4′,6-Diamidino-2 phenylindole (DAPI) (Sigma, USA). Cells were visualized using either an Axiovert 100 for transmission microscopy or Axioplan 2 for fluorescent microscopy (Zeiss, Germany) at selected magnifications. Captured images were processed using AxioVision Viewer 3.0 software.
Immunoblot Assays: Immunoblot analyses were performed as previously described (Fernando, P., et al., (2002) Proc Natl Acad Sci USA 99, 11025-11030). All samples were processed at 4° C. to maintain protein integrity. To generate neurosphere cell extracts, cultured neurospheres were collected at the indicated time points and solubilized in modified RIPA buffer containing protease and phosphatase inhibitors. Cells were sheared 4-5 times through a 21 gauge needle and mixed by 360° rotation at 4° C. for 30 minutes. Nestin 3 (AbCam, UK) was detected following the separation of total cellular proteins through a 6% acrylamide gel and Western transfer. Antibodies against neuronal class III […] and GFAP (AbCam, USA), active caspase 3 (BioVision, USA), 2′3′ cyclic nucleotide 3′ phosphohydrolase (CNPase) (Chemicon, USA) and p38α (Santa Cruz, USA) were used to detect proteins following separation by 10% polyacrylamide electrophoresis and Western transfer. In some instances, sample aliquots were sonicated following cell lysis in order to detect total cellular poly-ADP ribose polymerase (PARP) (BioVison, USA). Soluble PARP was assayed from unsonicated samples. Protein bands from Western blot assays were quantitated using Scion Image (Scion Corporation, USA).

[3] = system: PAK1; experiment: Immunoprecipitation/kinase assay of PAK1 from neurospheres; conditions: differentiation media, vs DMSO
Method: Immunoprecipitation/Kinase activity assays: Immunoprecipitation/kinase analyses were performed as previously described (Fernando, P., et al., (2002) Proc Natl Acad Sci USA 99, 11025-11030). Cellular lysates from neurospheres were generated as described above. Antibodies against apoptotic signal-regulating kinase 1 (ASK1) (Upstate, USA), p21 activated kinase 1 (PAK1) (Cell Signaling Technologies, USA), and p38 MAPK (Santa Cruz, USA) were used to immunoprecipitate respective proteins. Samples were mixed with Protein G-sepharose beads for 1 h, washed and then mixed with kinase assay buffer containing myelin basic protein (MBP) and γ-32P[ATP]. Samples were reacted at 30° C. for 30 min and separated using SDS-PAGE. In some instances, samples were transferred to PVDF membrane following electrophoresis. To quantify kinase activities, MBP acrylamide bands were excised and solubilized in scintillation fluid prior to 32P-liquid scintillation analyses. In all cases, an activated recombinant mitogen activated protein kinase activated protein-2 (MAPKAP kinase-2) (Upstate, USA) was used as an internal control for liquid scintillation analyses.
Caspase 3, when processed to its active form, is capable of targeting and activating many protein kinases that mediate cellular differentiation. […]

[4] = 2.0 μM inhibitor, differentiation media 48 h

nestin expression under differentiation conditions ([2]; 2.0 μM inhibitor, differentiation media, listed as DEVD): remained elevated
nestin after extended period in differentiation media ([2]; 4 d, immunoblot): a decrease in nestin was observed
PAK1 activity [3]: reduced
SMILES: COC(=O)CC[C@H](NC(=O)[C@H](CC(=O)OC)NC(=O)OCc1ccccc1)C(=O)N[C@H](C(=O)N[C@@H](CC(=O)OC)C(=O)CF)C(C)C [z-DEVD.fmk]
PARP cleavage products ([1]; listed as Z-DEVD.fmk): Comparable levels of PARP cleavage
PARP cleavage products ([1]; listed as z-DEVD): accumulated to a similar degree
GFAP expression [2, 4]: significant decrease; also recorded: fail to express the astrocyte marker protein GFAP
MBP expression [2, 4]: significant decrease; also recorded: fail to express the oligodendrocyte marker protein MBP
nestin expression under differentiation conditions ([2]; 2.0 μM inhibitor, differentiation media): sustained expression of nestin; also recorded: remain in an early progenitor state and express nestin
nestin expression under differentiation conditions ([2]; 2.0 μM inhibitor, differentiation media, listed as z-DEVD): remained elevated during the early periods of differentiation
nestin expression under growth conditions ([2]; 2.0 μM inhibitor, growth conditions): did not affect nestin expression; also recorded: express nestin
β-III tubulin level after 5 d ([2]; 5 d differentiation, immunoblot): very low level of β-III tubulin was detectable
β-III tubulin (Tuj-1) accumulation ([2]; differentiation media, immunoblot, vs DMSO): did not increase; also recorded: lower in caspase 3 inhibited samples relative to control
